Measured values from patent publication US6518261B2, “Use of eugenol in combination with other chemopreventative agents as prophylaxis for cancers” (Oncology Sciences Corporation, priority 2000, dated 2003).

Legend:
suspect cells = test: Cell cycle analysis; type: cell-based; conditions: cell cycle analysis data
From the text: Therefore induction of cell death pathway by 2-ME and growth inhibition by eugenol through a different pathway presents a tremendous new weapon for use in preventing and combating cancer.

LNCaP cells = test: Cell growth by trypan blue exclusion cell counting, confirmed by cell proliferation assay kit; type: cell-based, human; conditions: 72 hours of treatment, FIG. 2
Description: These cells were treated with different concentrations of eugenol (0.5, 1, 3, 5 and 10 mM). Cell growth was monitored every 24 hours by counting the increase in the cell number using trypan blue exclusion assay.
Cells were treated with either eugenol (0.25, 0.5, 0.75 or 1 mM) or 2-ME (0.5, 1, 2 or 3 mM) or both (0.25, 0.5, 0.75 or 1 mM of eugenol along with 0.5 mM of 2-ME). Cell growth was measured following 72 hours of treatment as described above.

Compound: COc1cc2c(cc1O)CC[C@@H]1[C@@H]2CC[C@]2(C)[C@@H](O)CC[C@@H]12 [2-ME, 2-methoxyestradiol]
- effect on cell cycle profile / mechanism of growth inhibition (suspect cells): inducing apoptosis and blocking cells in G2/M phase
- inhibition of growth of LNCaP cells (LNCaP cells; 0.5 mM of 2-ME): about 20%

Compound: C=CCc1ccc(O)c(OC)c1 [eugenol]
- effect on cell cycle profile / mechanism of growth inhibition (suspect cells): without any significant alterations in the cells cycle profile
- inhibition of growth of LNCaP cells (LNCaP cells; 0.25 mM of eugenol): about 30%
